Patent publication US7612097B2, “Method for producing bactericidal pyridine compound and bactericidal pyridine compound” (Tama Kagaku Kogyo Co., Ltd., priority 2003, dated 2009)
Converted amounts (≈) assume the structure as drawn.

Tests used:
Format in all cases: cell-based
[1] = system: Penicillium funiculosum IFO 6345; assay: Antimold MIC against eumycetes, broth dilution; conditions: Sabouraud medium, 30° C., 7 days
Procedure: (§1) As a control compound, TBZ (2-(4′-thiozolyl)benzimidazole) was used. Each minimum inhibitory concentration (MIC) was determined as will be described hereinafter. Following the general broth dilution method, each test microorganisms which had been precultured with Sabouraud medium was diluted with humectant-added, sterilized water to prepare a spore suspension. Aliquots (1 mL) of diluted solutions of a compound were mixed with 1-mL aliquots of the spore suspension, respectively. After incubating the mixtures at 30° C. for 1 week in an incubator, turbidity was relied upon to determine whether or not any growth had taken place. The turbidity-free lowest concentration was recorded as MIC.

[2] = system: Gliocladium virides IFO 6355; assay: Antimold MIC against eumycetes, broth dilution; conditions: Sabouraud medium, 30° C., 7 days
Procedure: as §1

[3] = system: Trichoderma virides IFO 30498; assay: Antimold MIC against eumycetes, broth dilution; conditions: Sabouraud medium, 30° C., 7 days
Procedure: as §1

[4] = system: Chaetomium globosum IFO 6347; assay: Antimold MIC against eumycetes, broth dilution; conditions: Sabouraud medium, 30° C., 7 days
Procedure: as §1

[5] = system: Cladosporium cladosporioides IFO 6348; assay: Antimold MIC against eumycetes, broth dilution; conditions: Sabouraud medium, 30° C., 7 days
Procedure: as §1

[6] = system: Aspergillus niger TSY 0013; assay: Antimold MIC against eumycetes, broth dilution; conditions: Sabouraud medium, 30° C., 7 days
Procedure: as §1

[7] = system: Aureobasidium pullulans IFO 6353; assay: Antimold MIC against eumycetes, broth dilution; conditions: Sabouraud medium, 30° C., 7 days
Procedure: as §1

[8] = system: Aspergillus terreus IFO 6346; assay: Antimold MIC against eumycetes, broth dilution; conditions: Sabouraud medium, 30° C., 7 days
Procedure: as §1

[9] = system: Rhizopus nigricans SN 32; assay: Antimold MIC against eumycetes, broth dilution; conditions: Sabouraud medium, 30° C., 7 days
Procedure: as §1

[10] = system: Aspergillus niger IFO 6341; assay: Antimold MIC against eumycetes, broth dilution; conditions: Sabouraud medium, 30° C., 7 days
Procedure: as §1

[11] = system: Escherichia coli K12 W3110; assay: Bacteriostatic activity MIC, broth dilution; conditions: nutrient broth, 37° C., 24 hours
Procedure: (§2) Using benzalkonium chloride as a control compound, minimum inhibitory concentrations (MICs) were determined.
(§3) Each minimum inhibitory concentration (MIC) was determined as will be described hereinafter. Aliquots of a suspension of stationary-phase cells, the cell concentration of which had been adjusted to 10^6 cells/mL with nutrient broth in accordance with the general broth dilution method, were mixed with serially-diluted solutions of a compound, respectively. Subsequent to stationary culture at 37° C. for 24 hours, the MIC value was determined depending upon whether or not any growth had taken place.
(§4) As test microorganisms, ten (10) Gram-negative bacteria and six (6) Gram-positive bacteria were used.

[12] = system: Micrococcus luteus IFO 12708; assay: Bacteriostatic activity MIC, broth dilution; conditions: nutrient broth, 37° C., 24 hours
Procedure: as §2, §3, §4

[13] = system: Bacillus cereus IFO 3001; assay: Bacteriostatic activity MIC, broth dilution; conditions: nutrient broth, 37° C., 24 hours
Procedure: as §2, §3, §4

[14] = system: Escherichia coli K12 OUT 8401; assay: Bacteriostatic activity MIC, broth dilution; conditions: nutrient broth, 37° C., 24 hours
Procedure: as §2, §3, §4

[15] = system: Staphylococcus aureus IFO 12732; assay: Bacteriostatic activity MIC, broth dilution; conditions: nutrient broth, 37° C., 24 hours
Procedure: as §2, §3, §4

[16] = system: Bacillus subtilis IFO 3134; assay: Bacteriostatic activity MIC, broth dilution; conditions: nutrient broth, 37° C., 24 hours
Procedure: as §2, §3, §4

[17] = system: Pseudomonas aeruginosa ATCC 3080; assay: Bacteriostatic activity MIC, broth dilution; conditions: nutrient broth, 37° C., 24 hours
Procedure: as §2, §3, §4

[18] = system: Klebsiella pneumoniae ATCC 4352; assay: Bacteriostatic activity MIC, broth dilution; conditions: nutrient broth, 37° C., 24 hours
Procedure: as §2, §3, §4

[19] = system: Staphylococcus aureus JCI (MRSA); assay: Bacteriostatic activity MIC, broth dilution; conditions: nutrient broth, 37° C., 24 hours
Procedure: as §2, §3, §4

[20] = system: Klebsiella pneumoniae ATCC 13883; assay: Bacteriostatic activity MIC, broth dilution; conditions: nutrient broth, 37° C., 24 hours
Procedure: as §2, §3, §4

[21] = system: Proteus mirabilis IFO 3849; assay: Bacteriostatic activity MIC, broth dilution; conditions: nutrient broth, 37° C., 24 hours
Procedure: as §2, §3, §4

[22] = system: Pseudomonas aeruginosa ATCC 27583; assay: Bacteriostatic activity MIC, broth dilution; conditions: nutrient broth, 37° C., 24 hours
Procedure: as §2, §3, §4

[23] = system: Proteus vulgaris ATCC 13315; assay: Bacteriostatic activity MIC, broth dilution; conditions: nutrient broth, 37° C., 24 hours
Procedure: as §2, §3, §4

[24] = system: Pseudomonas aeruginosa ATCC 10145; assay: Bacteriostatic activity MIC, broth dilution; conditions: nutrient broth, 37° C., 24 hours
Procedure: as §2, §3, §4

[25] = system: Bacillus subtilis ATCC 6633; assay: Bacteriostatic activity MIC, broth dilution; conditions: nutrient broth, 37° C., 24 hours
Procedure: as §2, §3, §4

[26] = system: Proteus rettgeri NIH 96; assay: Bacteriostatic activity MIC, broth dilution; conditions: nutrient broth, 37° C., 24 hours
Procedure: as §2, §3, §4

[27] = system: Escherichia coli K12 OUT 8401; assay: Bactericidal activity MBC, dilution method; conditions: 30° C., 30 min
Procedure: as §3
(§5) As a control compound, benzalkonium bromide was used. Using five (5) Gram-negative bacteria and four (4) Gram-positive bacteria as test microorganisms, minimum bactericidal concentrations (MBCs) were determined in a similar manner as described above.

[28] = system: Escherichia coli K12 W3110; assay: Bactericidal activity MBC, dilution method; conditions: 30° C., 30 min
Procedure: as §3, with “Subsequent to stationary culture at 37° C. for 24 hours, the MIC value was determined depending upon whether or not any growth had taken place.” left out
as §5

[29] = system: Bacillus cereus IFO 3001; assay: Bactericidal activity MBC, dilution method; conditions: 30° C., 30 min
Procedure: as §3, with “Subsequent to stationary culture at 37° C. for 24 hours, the MIC value was determined depending upon whether or not any growth had taken place.” left out
as §5

[30] = system: Staphylococcus aureus IFO 12732; assay: Bactericidal activity MBC, dilution method; conditions: 30° C., 30 min
Procedure: as §3, with “Subsequent to stationary culture at 37° C. for 24 hours, the MIC value was determined depending upon whether or not any growth had taken place.” left out
as §5

[31] = system: Bacillus subtilis IFO 3134; assay: Bactericidal activity MBC, dilution method; conditions: 30° C., 30 min
Procedure: as §3, with “Subsequent to stationary culture at 37° C. for 24 hours, the MIC value was determined depending upon whether or not any growth had taken place.” left out
as §5

[32] = system: Klebsiella pneumoniae ATCC 13883; assay: Bactericidal activity MBC, dilution method; conditions: 30° C., 30 min
Procedure: as §3, with “Subsequent to stationary culture at 37° C. for 24 hours, the MIC value was determined depending upon whether or not any growth had taken place.” left out
as §5

[33] = system: Pseudomonas aeruginosa ATCC 27583; assay: Bactericidal activity MBC, dilution method; conditions: 30° C., 30 min
Procedure: as §3, with “Subsequent to stationary culture at 37° C. for 24 hours, the MIC value was determined depending upon whether or not any growth had taken place.” left out
as §5

[34] = system: Bacillus subtilis ATCC 6633; assay: Bactericidal activity MBC, dilution method; conditions: 30° C., 30 min
Procedure: as §3, with “Subsequent to stationary culture at 37° C. for 24 hours, the MIC value was determined depending upon whether or not any growth had taken place.” left out
as §5

[35] = system: Proteus rettgeri NIH 96; assay: Bactericidal activity MBC, dilution method; conditions: 30° C., 30 min
Procedure: as §3, with “Subsequent to stationary culture at 37° C. for 24 hours, the MIC value was determined depending upon whether or not any growth had taken place.” left out
as §5

Row | Molecule | MIC [1] [µM] | MIC [2] [µM] | MIC [3] [µM] | MIC [4] [µM] | MIC [5] [µM] | MIC [6] [µM] | MIC [7] [µM] | MIC [8] [µM] | MIC [9] | MIC [10] [µM] | MIC [11] [µM] | MIC [12] [µM] | MIC [13] [µM] | MIC [14] [µM] | MIC [15] [µM] | MIC [16] [µM] | MIC [17] [µM] | MIC [18] [µM] | MIC [19] [µM] | MIC [20] [µM] | other results
1 | CCCCCCCC[n+]1cccc(COCCCCOCc2ccc[n+](CCCCCCCC)c2)c1.[Br-].[Br-] [Compound 7-A] | 3.6 | 3.6 | 6.25 | 3.6 | 3.6 | 3.6 | 3.6 | 3.6 | 6.25 µM | 3.6 | 0.9 | 0.2 | 0.45 | 0.9 | 0.45 | 0.5 | 6.25 | 1.8 | 0.4 | 1.8 | MIC [21]: 6.25 µM; MIC [22]: 6.25 µM; MIC [23]: 3.6 µM; MIC [24]: 6.25 µM; MIC [25]: 0.45 µM; MIC [26]: 3.6 µM; MBC [27]: 1.8 µM; MBC [28]: 1.8 µM; MBC [29]: 0.9 µM; MBC [30]: 0.9 µM; MBC [31]: 0.9 µM; MBC [32]: 3.6 µM; MBC [33]: 3.6 µM; MBC [34]: 0.9 µM; MBC [35]: 3.6 µM
2 | benzalkonium iodide [reference compound] |  |  |  |  |  |  |  |  |  |  |  |  |  |  |  |  |  |  |  |  | MBC [27]: 51.2 µM; MBC [28]: 204.8 µM; MBC [29]: 25.6 µM; MBC [30]: 6.4 µM; MBC [31]: 1.6 µM; MBC [32]: 102.4 µM; MBC [33]: 204.8 µM; MBC [34]: 0.8 µM; MBC [35]: 51.2 µM
3 | c1ccc2[nH]c(-c3cscn3)nc2c1 [TBZ, 2-(4′-thiozolyl)benzimidazole, reference compound] | 1.6 (≈ 0.322 µg/mL) | 3.2 (≈ 0.644 µg/mL) | 51.2 (≈ 10.3 µg/mL) | 3.2 (≈ 0.644 µg/mL) | 3.2 (≈ 0.644 µg/mL) | 102.4 (≈ 20.6 µg/mL) | 0.8 (≈ 0.161 µg/mL) | 25.6 (≈ 5.15 µg/mL) | 102.4< μM | 25.6 (≈ 5.15 µg/mL) |  |  |  |  |  |  |  |  |  |  | 
4 | benzalkonium chloride [reference compound] |  |  |  |  |  |  |  |  |  |  | 25.6 | 6.4 | 6.4 | 12.8 | 6.4 | 6.4 | 102.4 | 12.8 | 12.8 | 102.4 | MIC [21]: 204.8 µM; MIC [22]: 51.2 µM; MIC [23]: 16.4 µM; MIC [24]: 51.2 µM; MIC [25]: 6.4 µM; MIC [26]: 51.2 µM
5 | CCCCCCCCCC[n+]1cccc(COCCCCOCc2ccc[n+](CCCCCCCCCC)c2)c1.[Br-].[Br-] [Compound 7-C] | 1.8 | 1.8 | 0.9 | 0.9 | 0.9 | 1.8 | 1.8 | 0.9 | 1.8 µM | 1.8 | 0.45 | 0.1 | 0.2 | 0.45 | 0.2 | 0.2 | 0.9 | 0.45 | 0.45 | 1.8 | MIC [21]: 1.8 µM; MIC [22]: 1.8 µM; MIC [23]: 0.45 µM; MIC [24]: 1.8 µM; MIC [25]: 0.1 µM; MIC [26]: 0.9 µM; MBC [27]: 0.45 µM; MBC [28]: 0.45 µM; MBC [29]: 0.2 µM; MBC [30]: 0.2 µM; MBC [31]: 0.45 µM; MBC [32]: 0.9 µM; MBC [33]: 0.9 µM; MBC [34]: 0.2 µM; MBC [35]: 0.9 µM
6 | CCCCCCCC[n+]1ccc(COCCCCOCc2cc[n+](CCCCCCCC)cc2)cc1.[Br-].[Br-] [Compound 7-B] | 3.6 | 3.6 | 6.25 | 3.6 | 3.6 | 3.6 | 3.6 | 3.6 | 6.25 µM | 3.6 | 0.9 | 0.2 | 0.45 | 0.9 | 0.45 | 0.45 | 6.25 | 1.8 | 0.45 | 3.6 | MIC [21]: 6.25 µM; MIC [22]: 3.6 µM; MIC [23]: 3.6 µM; MIC [24]: 3.6 µM; MIC [25]: 0.45 µM; MIC [26]: 3.6 µM; MBC [27]: 1.8 µM; MBC [28]: 1.8 µM; MBC [29]: 0.9 µM; MBC [30]: 0.9 µM; MBC [31]: 0.9 µM; MBC [32]: 3.6 µM; MBC [33]: 3.6 µM; MBC [34]: 0.9 µM; MBC [35]: 3.6 µM
